Values of other authors, collected in patent publication US5183802A, “Pharmaceutical compositions for intranasal administration of calcitonin” (ISF Societa per Azioni, priority 1987, dated 1993).

Details: nasal absorption of insulin; compared with sodium caprate

Compound: CC1(C)[C@@H](O)CC[C@]2(C)[C@H]3C(=O)C=C4[C@@H]5C[C@@](C)(C(=O)[O-])CC[C@]5(C)CC[C@@]4(C)[C@]3(C)CC[C@@H]12.[Na+] [sodium glycyrrhetinate]
- strength as absorption-enhancing agent for insulin: weaker than sodium caprate
